Results published in PMC4436593, “Endoplasmic reticulum stress-independent activation of unfolded protein response kinases by a small molecule ATP-mimic” (eLife, 2015).
Several values for one entry are separate records, joined by “and”; a condition that tells them apart may be missing. Equal values may be shown once.

What was measured:
Assay type in all cases: cell-based
HEK293T cells = assay: HEK293T cell viability (CellTiter-Blue, 24 hr); conditions: 24 hr
Method: HEK293T cells were grown in DMEM (Sigma) complete media containing 10% FBS, 10 units/ml penicillin (Invitrogen), and 10 μg/ml streptomycin (Invitrogen). Cells were plated at a density of 30,000 cells per well in 96-well black plates with clear flat bottoms (Corning, Sigma-Aldrich) 24 hr before the experiment. A 12-point semi-logarithmic dilution series of compounds was made starting at 30 μM not to exceed 0.1% DMSO after final dilution into the growth media. Viability assays were conducted over the course of 24 hr. Cell viability was determined using CellTiter-Blue (Promega) following the manufacturer's instructions. […] Experiments were done in triplicate, and mean values were computed for each data point.

[1] = test system: IRE1α-GFP in T-REx293 cells; assay: IRE1-GFP foci formation in T-REx293 cells (confocal microscopy); conditions: doxycycline-induced IRE1α-GFP
Excerpt: We next used a T-REx293 cell line, containing a genome-integrated doxycycline-inducible IRE1α-GFP fusion gene, to monitor IRE1α oligomerization in vivo ([Li et al., 2010]). In the presence of doxycycline, IRE1α-GFP was expressed and localized to the ER (Figure 2D). […] Furthermore, the foci dissolved by 8 hr of treatment as cells attenuated IRE1α signaling even in the presence of unmitigated ER stress (Figure 2D, upper panels) ([Li et al., 2010]). […] While Tm-induced foci became larger and fewer over time as previously observed, IPA-induced foci remained small and numerous.
T-REx293 cells were split 2 days before imaging onto glass-bottom micro-well dishes (MatTek) at 5 × 10^4 cells/dish. Doxycyclin-containing medium (10 nM doxycycline) was added for 24 hr, withdrawn before imaging and replaced with imaging media (Hank's Balanced Salt Solution [Gibco], 2% FBS, and 5 mM HEPES pH 7.0). Images were acquired on a spinning-disk confocal microscope as described ([Li et al., 2010]).

[2] = test system: protein translation in HEK293T cells; assay: Metabolic labeling: [35S] methionine incorporation in HEK293T cells; conditions: IPA 1 μM
Method: HEK293T cells (500,000 cells/ml) were plated in 12-well flat bottom culture cluster dishes (Costar, Fisher Scientific) 24 hr before the experiment. IPA (1 μM), or a combination of IPA with GSK2606414 (TRC inc. […] Cells lysates were kept on ice for 30 min before high-speed centrifugation followed by denaturation at 95°C. The samples were resolved on an SDS-polyacrylamide gel, which were then stained with Coomassie blue to ascertain protein loading. […] The resulting autoradiograms were quantified using ImageQuant software (Molecular Dynamics).

[3] = test system: mouse embryonic fibroblast (MEFs) cells; assay: XBP1 mRNA splicing, PERK shift and eIF2α phosphorylation in WT, Ire1−/− and Perk−/− MEFs; conditions: IPA 1 µM, 4 hr
Excerpt: PERK activation by IPA could be due to direct binding of IPA to PERK, or it could be caused by indirect activation of PERK by IRE1. If the latter were true, IPA should not trigger PERK activation in the absence of IRE1. To test this notion, we treated mouse embryonic fibroblasts (MEFs) derived from Ire1α^−/− and Perk^−/− knock-out mice with IPA and monitored XBP1 mRNA splicing, and PERK and eIF2α phosphorylation.
(§1) Cells were lysed and total RNA was collected (Total RNA Kit 1, EZ-RNA, EZNA [USA]). PolyA^+ mRNA was reverse transcribed with M-MLV (Invitrogen), and the resulting cDNA was used as a template for PCR amplification across the fragment of XBP1 cDNA containing the intron. Primers used to amplify human XBP1: 5′-[…]-3′ and 5′-[…]-3′. To amplify murine XBP1: 5′-[…]-3′ and 5′-[…]-3′. PCR conditions were as follows: 95°C for 5 min, 95°C for 1 min, 58°C for 30 s, 72°C for 30 s, and 72°C for 5 min, with 20 cycles of amplification. PCR products were resolved on a 2.5% agarose tris-acetate EDTA (TAE) gel. As previously reported, a hybrid amplicon species consisting of unspliced Xbp-1 annealed to spliced Xbp-1 can also be produced through this PCR reaction and was visible as a slower migrating band above the unspliced amplicon. The same cDNA was used as template for PCR of DERLIN-3 and HERPUD1, both ATF6 targets, and GAPDH, which was used as loading control. Primers used included the following: DERLIN-3, 5′-[…]-3′ and 5′-[…]-3′; HERPUD1-1, 5′-[…]-3′ and 5′-[…]-3′; GAPDH, 5′-[…]-3′ and 5′-[…]-3′. PCR conditions were: 95°C × 5 min, 95°C × 1 min, 56°C × 30 s, 72°C for 30 s for 25 cycles, 72°C for 5 min at 4°C. PCR products were resolved on a 2% agarose TAE gel.
Cells were lysed in 50 mM Tris-HCl, 2% SDS, 10% glycerol, 0.01% bromophenol blue, pH 6.8 supplemented with phosphatase inhibitors (Sigma) and protease inhibitors (Roche). 30 μg to 50 μg of total protein was loaded on each lane of 8% or 10% SDS-PAGE gels. The separated proteins were then transferred onto nitrocellulose membranes for immunoblotting. The following antibodies and dilutions were used: anti-β-actin 1:10,000 (A5441, Sigma), anti-total PERK at 1:1000 (C33E10, Cell Signaling Technology), anti-phospho eIF2α at 1:1000 (3597S, Cell Signaling Technology), anti-total eIF2α at 1:1000 (L57A5, Cell Signaling Technology). After overnight incubation with primary antibody, membranes were washed in PBS with 0.05% Tween and incubated in HRP-coupled secondary antibody anti-rabbit (611–1302, Rockland) or anti-mouse (610–1302, Rockland) diluted at 1:5000 in wash buffer. Immunoreactive bands were detected by chemiluminescence.

[4] = test system: ATF6 transcriptional targets HERPUD1 (HERP1) and DERLIN3 (DERL3); assay: ATF6 target mRNAs HERP1 and DERL3 by RT-PCR in HEK293T cells; conditions: IPA 1 μM and 4 μM, Tm
Excerpt: To assess the effects of IPA on the activity of the two other UPR branches, we first examined activation of ATF6. To this end, we monitored mRNA levels by RT-PCR for two ATF6-driven transcriptional target genes, HERP1 and DERL3, in HEK293T cells.
as §1, with “PCR conditions were: 95°C × 5 min, 95°C × 1 min, 56°C × 30 s, 72°C for 30 s for 25 cycles, 72°C for 5 min at 4°C. PCR products were resolved on a 2% agarose TAE gel.” left out

Q: `CSc1ccc(NC(=O)Nc2ccc(Nc3nccc(Nc4cc(C5CC5)[nH]n4)n3)cc2)cc1` [IPA] was tested. Which “LD50 cell viability in the presence of 1 μM GSK” value (HEK293T cells; IPA + 1 μM GSK2606414) did it give?
A: 6.21 µM and 6.2 µM

Q: And the LD50 cell viability (HEK293T cells; IPA alone)?
A: 0.82 µM and 0.8 µM

Q: What about the IRE1α-GFP foci formation [1] of the same compound?
A: caused relocalization of IRE1α-GFP into foci

Q: And the “incorporation of [35S]-methionine into newly synthesized proteins” value [2]?
A: impaired

Q: What about the “PERK phosphorylation and eIF2α phosphorylation in Ire1α−/− MEFs” value ([3]; Ire1α−/− MEFs) of the same compound?
A: pronounced PERK phosphorylation

Q: And the “XBP1 mRNA splicing in Ire1α−/− MEFs” value ([3]; Ire1α−/− MEFs)?
A: no IPA-induced XBP1 mRNA splicing

Q: And the “eIF2α phosphorylation in Perk−/− MEFs” value ([3]; Perk−/− MEFs)?
A: only a trace amount of IPA-induced eIF2α phosphorylation

Q: What about the “UPR branch activation in wild-type MEFs” value ([3]; WT MEFs) of the same compound?
A: induced both the PERK and IRE1 branches of the UPR

Q: And the “induction of ATF6 target genes HERP1 and DERL3” value [4]?
A: no detectable induction
